Experimental data reported in patent publication US11046716B2, “Beta-lactamase inhibitors” (priority 2015, dated 2021).

Columns and labels:
SHV-5 = molecular target: T1, SHV-5 (Klebsiella pneumoniae, UniProt P0A3M1); assay: β-lactamase enzyme inhibition assay, SHV-5 (cefotaxime substrate); type: biochemical
T1 construct: made in house; host or cells: E. coli BL21(DE3)
In short: (§1)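 Native untagged enzymes expressed in E. coli BL21(DE3), purified by cation exchange and gel filtration. Inhibitor preincubated with enzyme 15 min at 37 °C; hydrolysis followed by absorbance: imipenem at 300 nm for KPC-2, cefotaxime at 260 nm for SHV-5. IC50 as concentration halving initial hydrolysis rate versus inhibitor-free wells.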

KPC-2 = molecular target: T2, KPC-2 (Klebsiella pneumoniae, UniProt Q9F663); assay: β-lactamase enzyme inhibition assay, KPC-2 (imipenem substrate); type: biochemical; settings: Class A; imipenem substrate, 300 nm; read-out: KPC-2
T2 construct: made in house; host or cells: E. coli BL21(DE3)
In short: as §1

VIM-2 = molecular target: T3, VIM-2 (Escherichia coli, UniProt Q5U7L7); assay: β-lactamase enzyme inhibition assay, VIM-2 (nitrocefin substrate); type: biochemical; settings: Class B; nitrocefin substrate, 486 nm; read-out: VIM-2
T3 construct: made in house; host or cells: E. coli BL21(DE3)
In short: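 IC50 reflects the inhibitor concentration cutting the initial nitrocefin hydrolysis rate by half, compared with control wells lacking inhibitor. Substrate was used at 100 μM final after a 15 min, 37 °C enzyme–inhibitor preincubation.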

AmpC = molecular target: T4, AmpC (Enterobacter cloacae, UniProt P05364); assay: β-lactamase enzyme inhibition assay, p99 AmpC (nitrocefin substrate); type: biochemical
T4 construct: made in house; host or cells: E. coli BL21(DE3)
In short: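 Native untagged enzymes expressed in E. coli BL21(DE3), purified by cation exchange and gel filtration. Inhibitor preincubated with enzyme 15 min at 37 °C; hydrolysis followed by absorbance. IC50 as concentration halving initial hydrolysis rate versus inhibitor-free wells.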

OXA-48 = OXA-48 (UniProt Q6XEC0); assay: β-lactamase enzyme inhibition assay, Class D oxacillinase; type: biochemical; settings: read-out: OXA-48
[1] = test system: E. coli expressing the Class A Extended Spectrum Beta-Lactamase (ESBL) CTX-M-15; assay: Broth microdilution MIC assay with ceftazidime, E. coli CTX-M-15; type: cell-based; settings: Fixed CAZ (ceftazidime) 4 μg/mL; E. coli ESBL4 CTX-M-15
In short: (§2)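 Potentiation format: the β-lactam was held at 4 μg/ml while the test compound was serially diluted, and growth was scored visually after overnight (16-20 h) incubation at 37° C.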

[2] = test system: E. cloacae expressing the Class C P99; assay: Broth microdilution MIC assay with ceftazidime, E. cloacae P99; type: cell-based; settings: Fixed CAZ (ceftazidime) 4 μg/mL; E. cl. 144200 p99 AmpC
In short: as §2

[3] = test system: K. pneumoniae expressing the Class A carbapenemase KPC-2; assay: Broth microdilution MIC assay with meropenem, K. pneumoniae KPC-2; type: cell-based; settings: Fixed Mero (meropenem) 4 μg/mL; K. p. 156319 KPC-3
In short: as §2

[4] = test system: P. aeruginosa expressing the Class B carbapenemase VIM-2; assay: Broth microdilution MIC assay with meropenem, P. aeruginosa VIM-2; type: cell-based; settings: Fixed Mero (meropenem) 4 μg/mL; P. aerug. 2775 VIM-2
In short: as §2

[5] = test system: K. pneumoniae expressing the class A carbapenemase KPC-2 and the class B carbapenemase VIM-4; assay: Broth microdilution MIC assay with meropenem, K. pneumoniae KPC-2 and VIM-4; type: cell-based; settings: Fixed Mero (meropenem) 4 μg/mL; K. p. A-1797 KPC-2 VIM-4
In short: as §2

[6] = test system: K. pneumoniae producing the Class D carbapenemase OXA-48; assay: Broth microdilution MIC assay with meropenem, K. pneumoniae OXA-48; type: cell-based; settings: Fixed Mero (meropenem) 4 μg/mL; K. p. 11978 OXA-48
In short: as §2

T2 sequence (Q9F663 25-293, looked up): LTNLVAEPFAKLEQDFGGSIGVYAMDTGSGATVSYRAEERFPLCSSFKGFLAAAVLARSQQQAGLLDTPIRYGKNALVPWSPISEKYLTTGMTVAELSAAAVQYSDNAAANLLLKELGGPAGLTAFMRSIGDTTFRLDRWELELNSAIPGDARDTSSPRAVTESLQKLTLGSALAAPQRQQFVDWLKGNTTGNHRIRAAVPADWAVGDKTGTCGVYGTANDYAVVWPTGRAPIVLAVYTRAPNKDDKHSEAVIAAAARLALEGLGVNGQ
T1 sequence (P0A3M1 22-286): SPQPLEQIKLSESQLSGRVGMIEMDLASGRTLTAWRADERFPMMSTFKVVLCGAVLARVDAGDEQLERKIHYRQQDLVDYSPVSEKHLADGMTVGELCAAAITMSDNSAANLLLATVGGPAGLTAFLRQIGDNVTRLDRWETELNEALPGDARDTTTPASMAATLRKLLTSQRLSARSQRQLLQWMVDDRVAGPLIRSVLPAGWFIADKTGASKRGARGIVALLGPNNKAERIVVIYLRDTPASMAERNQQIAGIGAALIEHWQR
T4 sequence (P05364 21-381): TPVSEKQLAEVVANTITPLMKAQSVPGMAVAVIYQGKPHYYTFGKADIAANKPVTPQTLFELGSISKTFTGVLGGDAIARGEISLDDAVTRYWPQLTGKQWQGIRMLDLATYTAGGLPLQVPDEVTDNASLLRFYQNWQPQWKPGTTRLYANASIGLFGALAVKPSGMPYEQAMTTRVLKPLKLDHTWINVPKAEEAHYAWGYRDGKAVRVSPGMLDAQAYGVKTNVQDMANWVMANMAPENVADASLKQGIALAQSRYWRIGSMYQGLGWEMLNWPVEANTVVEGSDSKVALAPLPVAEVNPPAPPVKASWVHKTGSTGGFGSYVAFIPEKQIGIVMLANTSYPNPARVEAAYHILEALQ

Row | SMILES | IC50 (SHV-5) | IC50 (KPC-2) | IC50 (VIM-2) | IC50 (AmpC) | IC50 (OXA-48) | MIC (μg/mL) of Exemplary Compounds in presence of fixed β-lactams: E. coli ESBL4 CTX-M-15 [1] | MIC (μg/mL) of Exemplary Compounds in presence of fixed β-lactams: E. cl. 144200 p99 AmpC [2] | MIC (μg/mL) of Exemplary Compounds in presence of fixed β-lactams: K. p. 156319 KPC-3 [3] | MIC (μg/mL) of Exemplary Compounds in presence of fixed β-lactams: P. aerug. 2775 VIM-2 [4] | MIC (μg/mL) of Exemplary Compounds in presence of fixed β-lactams: K. p. A-1797 KPC-2 VIM-4 [5] | MIC (μg/mL) of Exemplary Compounds in presence of fixed β-lactams: K. p. 11978 OXA-48 [6]
1 | NC1CN(C(=O)c2cn(CC(=O)N[C@H]3Cc4cccc(C(=O)O)c4OB3O)nn2)C1 [Example 80, (R)-3-(2-(4-(3-aminoazetidine-1-carbonyl)-1H-1,2,3-triazol-1-yl)acetamido)-2-hydroxy-3,4-dihydro-2H-benzo[e][1,2]oxaborinine-8-carboxylic acid] | < 100 nM | < 100 nM | 100 to 1000 nM | < 100 nM | 100 to 1000 nM | C (C represents an MIC of <1 μg/mL) | C (C represents an MIC of <1 μg/mL) | B (B represents an MIC between 1 and 16 μg/mL inclusive) | C (C represents an MIC of <1 μg/mL) | B (B represents an MIC between 1 and 16 μg/mL inclusive) | B (B represents an MIC between 1 and 16 μg/mL inclusive)
2 | O=C(Cn1cc(C(=O)N[C@H]2CCNC2)nn1)N[C@H]1Cc2cccc(C(=O)O)c2OB1O [Example 81, (R)-2-hydroxy-3-(2-(4-(((S)-pyrrolidin-3-yl)carbamoyl)-1H-1,2,3-triazol-1-yl)acetamido)-3,4-dihydro-2H-benzo[e][1,2]oxaborinine-8-carboxylic acid] | < 100 nM | < 100 nM | < 100 nM | < 100 nM | 100 to 1000 nM | C (C represents an MIC of <1 μg/mL) | C (C represents an MIC of <1 μg/mL) | C (C represents an MIC of <1 μg/mL) | C (C represents an MIC of <1 μg/mL) | C (C represents an MIC of <1 μg/mL) | C (C represents an MIC of <1 μg/mL)
3 | NC1CCN(C(=O)c2cn(CC(=O)N[C@H]3Cc4cccc(C(=O)O)c4OB3O)nn2)CC1 [Example 82, (R)-3-(2-(4-(4-aminopiperidine-1-carbonyl)-1H-1,2,3-triazol-1-yl)acetamido)-2-hydroxy-3,4-dihydro-2H-benzo[e][1,2]oxaborinine-8-carboxylic acid] | < 100 nM | < 100 nM | 100 to 1000 nM | < 100 nM | 100 to 1000 nM | C (C represents an MIC of <1 μg/mL) | C (C represents an MIC of <1 μg/mL) | C (C represents an MIC of <1 μg/mL) | C (C represents an MIC of <1 μg/mL) | B (B represents an MIC between 1 and 16 μg/mL inclusive) | C (C represents an MIC of <1 μg/mL)
4 | O=C(Cn1cc(C(=O)NC2CCNCC2)nn1)N[C@H]1Cc2cccc(C(=O)O)c2OB1O [Example 83, (R)-2-hydroxy-3-(2-(4-(piperidin-4-ylcarbamoyl)-1H-1,2,3-triazol-1-yl)acetamido)-3,4-dihydro-2H-benzo[e][1,2]oxaborinine-8-carboxylic acid] | 100 to 1000 nM | 100 to 1000 nM | < 100 nM | < 100 nM | 100 to 1000 nM | C (C represents an MIC of <1 μg/mL) | C (C represents an MIC of <1 μg/mL) | C (C represents an MIC of <1 μg/mL) | C (C represents an MIC of <1 μg/mL) | B (B represents an MIC between 1 and 16 μg/mL inclusive) | B (B represents an MIC between 1 and 16 μg/mL inclusive)
5 | O=C(Cn1cc(C(=O)N[C@@H]2CCNC2)nn1)N[C@H]1Cc2cccc(C(=O)O)c2OB1O [Example 84, (R)-2-hydroxy-3-(2-(4-(((R)-pyrrolidin-3-yl)carbamoyl)-1H-1,2,3-triazol-1-yl)acetamido)-3,4-dihydro-2H-benzo[e][1,2]oxaborinine-8-carboxylic acid] | 100 to 1000 nM | < 100 nM | < 100 nM | < 100 nM | 100 to 1000 nM | C (C represents an MIC of <1 μg/mL) | C (C represents an MIC of <1 μg/mL) | B (B represents an MIC between 1 and 16 μg/mL inclusive) | C (C represents an MIC of <1 μg/mL) | C (C represents an MIC of <1 μg/mL) | B (B represents an MIC between 1 and 16 μg/mL inclusive)
6 | N[C@@H]1CCN(C(=O)c2cn(CC(=O)N[C@H]3Cc4cccc(C(=O)O)c4OB3O)nn2)C1 [Example 85, (R)-3-(2-(4-((R)-3-aminopyrrolidine-1-carbonyl)-1H-1,2,3-triazol-1-yl)acetamido)-2-hydroxy-3,4-dihydro-2H-benzo[e][1,2]oxaborinine-8-carboxylic acid] | 100 to 1000 nM | 100 to 1000 nM | 100 to 1000 nM | < 100 nM | 100 to 1000 nM | C (C represents an MIC of <1 μg/mL) | C (C represents an MIC of <1 μg/mL) | C (C represents an MIC of <1 μg/mL) | C (C represents an MIC of <1 μg/mL) | B (B represents an MIC between 1 and 16 μg/mL inclusive) | B (B represents an MIC between 1 and 16 μg/mL inclusive)
